Measured values taken from publication PMC11311031, “Novel Thienopyrimidine-Hydrazinyl Compounds Induce DRP1-Mediated Non-Apoptotic Cell Death in Triple-Negative Breast Cancer Cells” (Cancers, 2024).
Entries after “also recorded” stand apart in the source; their conditions may differ.

How the values were obtained:
Assay type in all cases: cell-based
BT-20 cells [1] = test: Nuclear staining with Hoechst 33342; details: 1 μM, 24 h
Experimental: Briefly, 100,000 cells/well of BT-20 cells were plated in a 6-well plate containing clear sterile coverslips. […] Next, the cells were stained with 0.5% v/v of the Hoechst 33342 dye for 15 min. 4% paraformaldehyde at a concentration of 4%, was used to fix cells at room temperature for another 15 min. After 1 wash with PBS, the cells were mounted on a clear slide, using Fluoromount-G (SouthernBiotech, Birmingham, AL, USA). The slides were visualized to detect nuclear fragmentation using the Cytation 7 Cell Imaging Multi-Mode Reader (Agilent Technologies, Winooski, VT, USA), which provided data related to nuclear fragmentation.

ROS in BT-20 cells = test: Intracellular ROS (H2DCFDA dye); details: 2 μM, 2 h, p < 0.0001
Excerpt: It has been reported that ROS can cause the death of cancer cells by inducing apoptosis. Indeed, high levels of ROS activate the p53 enzyme system, which promotes late-stage apoptosis by upregulating the levels of pro-apoptotic proteins such as BAK and BAX and downregulating the levels of anti-apoptotic proteins such as BCL-2, BCL-xL, and MCL-1 [120]. In addition, ROS induce permeabilization of the outer mitochondrial membrane by opening the mitochondrial permeability transition pore (mPTP). This alters the electrochemical proton gradient across the mitochondria, causing the release of pro-apoptotic molecules into the cytoplasm, which are involved in apoptotic cell death. […] Cellular esterases hydrolyze the acetyl groups after the dye is taken up by cells, resulting in the formation of H2DCF [124]. Subsequently, intracellular ROS oxidize H2DCF to produce 2′,7′-dichlorofluorescein, which emits green fluorescence (excitation and emission wavelengths of 485 nm and 522 nm, respectively).

[2] = test system: caspase 3/7 activity in BT-20 cells; test: Caspase-Glo 3/7 activity assay
Experimental: Caspase-Glo® 3/7 Assay (Promega, Madison, WI, USA) was used to study the caspase 3/7 activity in BT-20 cells incubated with lead compounds. Briefly, 3000 BT-20 TNBC cells/well were plated in an opaque 96-well plate. […] Next, a mixture of Caspase-Glo® 3/7 buffer and lyophilized Caspase-Glo® 3/7 substrate was equilibrated to room temperature. The plates were removed from the incubator and allowed to adjust to room temperature for 30 min. Next, 100 μL of the Caspase-Glo® 3/7 reagent was added to each well, and the samples were placed in a shaker for 30 s. After 3 h of incubation at room temperature, luminescence, which indicates cleavage of […] caspases (caspase-3 and -7), was measured using a microplate reader (Agilent Technologies, Winooski, VT, USA).

[3] = test system: cytochrome c in BT-20 cells; test: Immunofluorescence of cytochrome c; details: 1 μM, p < 0.0001
Experimental: Immunofluorescence assays were conducted as previously described. In total, 100,000 BT-20 cells per well were plated on coverslips in a 6-well plate. […] After the incubation period, the media was carefully removed, and the cells were fixed using 1 mL of 4% paraformaldehyde for 15 min at room temperature. The cells were rinsed three times with PBS for 5 min. Five hundred microliters of 0.2% Trition-X100 was added to each well for 10 min to permeabilize the cells. The cells were washed three times with PBS for 5 min each. The cells were then blocked with 3% bovine serum albumin (BSA) in PBS, containing 0.1% Tween, for 2 h at room temperature before incubation with either cytochrome c (1:250), DRP1 (1:50), or phosphorylated-DRP1(1:450) monoclonal antibodies (Cell Signaling Technology, Danvers, MA, USA) overnight at 4 °C. The cells were incubated with either anti-mouse Alexa Fluor™ 594 (Invitrogen, Waltham, MA, USA) or anti-rabbit Alexa Fluor™ 488 at room temperature for 1 h. Nuclei were finally stained with Hoechst 33342 (ImmunoChemistry Technologies, Davis, CA, USA) for 10 min. Images were captured using a Cytation 7 Cell Imaging Multi-Mode Reader.

[4] = test system: caspases (-3, -7, -8, -9), BAX, BAK, BCL-2, PARP in BT-20 cells; test: Western blot of apoptotic and anti-apoptotic proteins; details: 1 μM
Experimental: Subsequently, the cells were washed with ice-cold PBS. The subcellular fraction was obtained by scraping the cells using a cell scrapper in ice-cold cytosolic lysis buffer. Next, the lysates were left on ice for 15 min. Nonyl phenoxypolyethoxylethanol (NP-40) (10% v/v) was introduced in the lysates and subjected to 2–3 min incubation. The lysates were then centrifuged for 10 min at 4 °C and 14,000 rpm. The resultant protein concentration in the lysates was determined using bicinchoninic acid (BCA) assay. Thirty micrograms of the proteins were loaded and separated on a 10% acrylamide SDS-PAGE gel, transferred to a PVDF membrane, and incubated overnight at 4 °C, with primary antibodies against cleaved caspase-3, caspase-3, cleaved caspase-7, caspase-7, cleaved caspase-9, caspase-9, cleaved caspase-8, caspase-8, BAX, BAK, BCL-2, cleaved PARP, PARP, p-DRP1, DRP1, p-MFF, MFF, FIS1, MFN1, MFN2, OPA1, and β-actin. […] ImageJ software (National Institutes of Health, Bethesda, MD, USA) was used to quantify the protein. Cellular proteins were quantified as a ratio to β-actin and were normalized to the vehicle control. The densitometry readings/intensity ratio of each band, andthe original whole western blot (uncropped blots) showing all the bands with the molecular weight markers, is shown in the Supplemental Materials.

BT-20 cells [5] = test: CellTiter-Blue (CTB) assay; details: Homo sapiens, 72 h incubation, read-out: IC50 ± SD, BT-20, CTB Assay
Experimental: (§1) The cytotoxic efficacy of thienopyrimidine derivatives was determined as previously described, using 3 different assays: (1) (3-(4,5-dimethylthiazol-2-yl)-2,5-diphenyltetrazolium bromide) (MTT) (Avantor, Radnor, PA, USA), (2) CellTiter-Blue (CTB) (Promega, Madison, WI, USA), and (3) sulforhodamine B (SRB) (TargetMol, Boston, MA, USA) assay. For these assays, cells were harvested using 0.05% trypsin-ethylenediamine-tetraacetic acid (EDTA) (Corning, Corning, NY, USA), seeded at a density of 3000–5000 cells/well in a 96-well plate, and incubated at 37 °C overnight. The next day, the cells were incubated with different concentrations of the test compounds (0.1, 0.3, 1, 3, 10, 30, or 100 μM) and incubated for 72 h. […] In contrast, vehicle control (cells incubated in drug-free medium) contained less than 0.1% of DMSO.
For the CTB assay, the CTB reagent was added to cells and incubated for 3 h to allow the reduction of resazurin (emits a blue color and low fluorescence) by metabolically active cells to resorufin (emits a pink color and high fluorescence). Finally, the plates were shaken for 10 s in a plate shaker, and fluorescence was measured at 560/590 nm.

BT-20 cells [6] = test: Sulforhodamine B (SRB) assay; details: Homo sapiens, 72 h incubation, read-out: IC50 ± SD, BT-20, SRB Assay
Experimental: as §1
For the SRB assay, the cells were fixed with 50% (w/v) tri-chloroacetic acid (TCA) (Avantor, Radnor, PA, USA) and incubated at 4 °C for 1 h. The cells were washed 4 times with deionized, distilled water, and air-dried at room temperature. The next day, the cells were stained with 0.04% (w/v) SRB solution for 1 h at room temperature and washed 4 times with 1% (v/v) acetic acid (Avantor, Radnor, PA, USA). After airdrying the plates overnight, 10 mM Tris base solution (pH 10.5) was added to each well and pipetted thoroughly to dissolve the dye, and absorbance was read at 510 nm.

BT-20 cells [7] = test: MTT cell cytotoxicity assay; details: Homo sapiens, 72 h incubation, read-out: IC50 ± SD, BT-20, MTT Assay
Experimental: as §1
For the MTT assay, 4 mg/mL MTT was added to the cells and incubated for 3 h to allow for the conversion of MTT (yellow) to formazan crystals (dark blue). Following incubation, the media was aspirated and DMSO was added to solubilize the formazan crystals. The Cytation 7 Cell Imaging Multi-Mode Reader (Agilent Technologies, Winooski, VT, USA) was used to measure the absorbance at 570 nm.

[8] = test system: mitochondrial membrane potential in BT-20 cells; test: Mitochondrial membrane potential (TMRE dye); details: 200 μM, 4 h, p < 0.0001
Experimental: The mitochondrial membrane potential (MMP) was determined using fluorescence microscopy by staining cellular mitochondria with tetramethylrhodamine ethyl ester (TMRE) dye (Invitrogen, Waltham, MA, USA). […] As a positive control, cells were incubated with carbonyl cyanide 3-chlorophenylhydrazone (CCCP) (TargetMol, Boston, MA, USA), a compound that uncouples mitochondrial oxidative phosphorylation, at a concentration of 200 μM, for 4 h. After incubation with the test compounds, the media was carefully removed from each well and incubated for 20 min with 0.4 µM of TMRE in PBS. Finally, the dye was carefully removed and replaced with fresh PBS. The cells were then imaged to detect MMP using a Cytation 7 Cell Imaging Multi-Mode Reader.

[9] = test system: mouse embryonic fibroblast (MEF) cells; test: β-Galactosidase staining (senescence), positive control; details: 250 nM, 24 h
Experimental: BT-20 cells were plated at 4000/well into a 96-well plate and incubated overnight. […] Four thousand cells/well of senescent MEFs were also seeded. The plate was incubated for 24 h. Once 80–100% confluency was obtained, mouse embryonic fibroblast (MEF) cells were incubated with 250 nM of doxorubicin for 24 h to induce senescence (positive control), followed by a change in media. The cells were incubated for another week and the media was changed every 3–4 days.
The next day, the cells were washed with PBS and fixed with 3% formaldehyde for 5 min. The cells were washed with PBS twice, followed by an addition of β-galactosidase (Research Products International, Racine, WI, USA) stain. The cells were placed in a 37 °C incubator with no CO2 overnight and imaged to detect β-galactosidase staining the next day using the Color Brightfield channel on the Cytation 7 Imaging Multi-Mode Reader.

CC(=O)O[C@H]1C(=O)[C@@]2(C)[C@H]([C@H](OC(=O)c3ccccc3)[C@]3(O)C[C@H](OC(=O)[C@H](O)[C@@H](NC(=O)c4ccccc4)c4ccccc4)C(C)=C1C3(C)C)[C@]1(OC(C)=O)CO[C@@H]1C[C@@H]2O [PTX, Paclitaxel]
level of nuclear fragmentation (positive control) (BT-20 cells [1]): significantly increased
ROS levels compared to vehicle control (ROS in BT-20 cells): significantly elevated
level of bioluminescence (activation of caspase-3 and caspase-7) ([2]; 0.1 μM): significantly increased
caspase-3 and 7 activity (Caspase-Glo 3/7) ([2]; 1 µM, n = 2): induced; also recorded: increased
cytochrome c release compared to vehicle control [3]: significantly enhanced
Bcl-2 levels compared to vehicle control [4]: significant decrease
levels of cleaved caspase-3, -7, -8, -9 and total caspase-8 compared to vehicle control [4]: significantly upregulated
IC50 (BT-20 cells [5]): 70 ± 30 nM
IC50 (BT-20 cells [6]): 50 nM
IC50 (BT-20 cells [7]): 50 nM

N#CC(C#N)=NNc1cccc(Cl)c1 [CCCP, carbonyl cyanide 3-chlorophenylhydrazone]
TMRE fluorescence compared to vehicle control (positive control) [8]: significantly lower

COc1cccc2c1C(=O)c1c(O)c3c(c(O)c1C2=O)C[C@@](O)(C(=O)CO)C[C@@H]3O[C@H]1C[C@H](N)[C@H](O)[C@H](C)O1 [doxorubicin]
SA-β-gal staining of MEF cells (positive control) [9]: stained blue
